Reference: patent US8426437B2, “Pyrroloquinoline derivatives and their use as protein kinases inhibitors” (Pierre Fabre Medicament, priority 2005, dated 2013)
pIC50: −log10 of the molar value.

Target: T1, RET (Homo sapiens, UniProt P07949)
T1 construct: purchased Upstate 14-570MG
Test: Inhibition of RET kinase activity, recombinant RET method (Kinase-Glo)
Assay type: biochemical
Conditions: RET 2 μg/ml, poly-EY4 substrate, 20 μM ATP, two hours at 30° C.
Method in brief: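 Recombinant RET at 2 μg/ml in 20 mM MOPS/NaOH pH 7.0, 1 mM EDTA, 5% glycerol, 0.01% Brij35, 0.1% 2-mercaptoethanol, 1 mg/ml BSA; compounds 10 nM–30 μM final.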

T1 sequence (P07949 29-1114): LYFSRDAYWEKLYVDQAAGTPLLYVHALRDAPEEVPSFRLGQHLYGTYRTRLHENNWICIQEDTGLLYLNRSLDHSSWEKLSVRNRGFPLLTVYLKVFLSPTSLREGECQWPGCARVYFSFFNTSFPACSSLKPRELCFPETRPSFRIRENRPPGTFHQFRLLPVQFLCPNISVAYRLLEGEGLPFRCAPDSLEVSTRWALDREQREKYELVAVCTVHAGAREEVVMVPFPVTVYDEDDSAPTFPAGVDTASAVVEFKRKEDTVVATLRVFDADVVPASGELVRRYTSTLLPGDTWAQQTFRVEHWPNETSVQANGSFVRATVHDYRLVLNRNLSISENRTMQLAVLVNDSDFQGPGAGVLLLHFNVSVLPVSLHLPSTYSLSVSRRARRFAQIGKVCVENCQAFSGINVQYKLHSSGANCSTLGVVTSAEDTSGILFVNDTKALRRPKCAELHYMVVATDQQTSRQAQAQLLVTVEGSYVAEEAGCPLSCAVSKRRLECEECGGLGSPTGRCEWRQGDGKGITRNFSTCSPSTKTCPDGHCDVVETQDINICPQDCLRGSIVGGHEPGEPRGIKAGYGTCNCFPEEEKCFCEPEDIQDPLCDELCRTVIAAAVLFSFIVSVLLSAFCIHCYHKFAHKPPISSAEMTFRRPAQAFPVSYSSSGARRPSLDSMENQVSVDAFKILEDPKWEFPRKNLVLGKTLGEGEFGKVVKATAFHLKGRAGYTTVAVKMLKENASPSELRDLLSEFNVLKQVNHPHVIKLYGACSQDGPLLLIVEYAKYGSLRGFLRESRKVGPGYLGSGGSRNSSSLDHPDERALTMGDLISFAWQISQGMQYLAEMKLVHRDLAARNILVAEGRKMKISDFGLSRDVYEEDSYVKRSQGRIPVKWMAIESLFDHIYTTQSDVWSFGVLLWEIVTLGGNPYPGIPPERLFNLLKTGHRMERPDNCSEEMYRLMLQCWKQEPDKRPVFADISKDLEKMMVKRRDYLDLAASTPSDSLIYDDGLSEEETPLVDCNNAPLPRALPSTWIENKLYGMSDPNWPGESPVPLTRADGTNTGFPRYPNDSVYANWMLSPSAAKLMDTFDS

SMILES	pIC50
CCOC(=O)c1c[nH]c2c(=O)[nH]c3ccc(-c4ccc5c(c4)OCCO5)cc3c12 [Compound 248, 8-(2,3-Dihydro-benzo[1,4]dioxin-6-yl)-4-oxo-4,5-dihydro-3H-pyrrolo[2,3-c]quinoline-1-ethyl carboxylate]	6.00 to 7.00
CCCOC(=O)c1c[nH]c2c(=O)[nH]c3ccc(S(=O)(=O)N(C)CCN(CC)CC)cc3c12 [Compound 138, 8-[(2-Diethylamino-ethyl)-methyl-sulfamoyl]-4-oxo-4,5-dihydro-3H-pyrrolo[2,3-c]quinoline-1-propyl carboxylate]	6.00 to 7.00
CCOC(=O)c1c[nH]c2c(=O)[nH]c3ccc(-c4ccc(S(C)(=O)=O)cc4)cc3c12 [Compound 245, 8-(4-Methanesulfonyl-phenyl)-4-oxo-4,5-dihydro-3H-pyrrolo[2,3-c]quinoline-1-ethyl carboxylate]	5.00 to 6.00
CCOC(=O)c1c[nH]c2c(=O)[nH]c3ccc(C(=O)CN4CCOCC4)cc3c12 [Compound 218, 8-(2-Morpholin-4-yl-acetyl)-4-oxo-4,5-dihydro-3H-pyrrolo[2,3-c]quinoline-ethyl carboxylate]	5.00 to 6.00
CCOC(=O)c1c[nH]c2c(=O)[nH]c3cc(Cl)ccc3c12 [Compound 216, 7-Chloro-4-oxo-4,5-dihydro-3H-pyrrolo[2,3-c]quinoline-1-ethyl carboxylate]	5.00 to 6.00
CCCOC(=O)c1c[nH]c2c(=O)[nH]c3ccc(S(=O)(=O)N(C[C@H]4CCCN4C(=O)OC(C)(C)C)C4CC4)cc3c12 [Compound 147, (R)-8-[(1-tert-Butoxycarbony-pyrrolidin-2-ylmethyl)-cyclopropyl-sulfamoyl]-4-oxo-4,5-dihydro-3H-pyrrolo[2,3-c]quinoline-1-propyl carboxylate]	5.00 to 6.00
O=C(NCCCO)c1c[nH]c2c(=O)[nH]c3ccccc3c12 [Compound 85, N-(3-Hydroxy-propyl)-4-oxo-4,5-dihydro-3H-pyrrolo[2,3-c]quinoline-1-carboxamide]	4.00 to 5.00
CCOC(=O)c1c[nH]c2c(=O)[nH]c3ccc(-c4ccccc4Cl)cc3c12 [Compound 229, 8-(2-Chlorophenyl)-4-oxo-4,5-dihydro-3H-pyrrolo[2,3-c]quinoline-1-ethyl carboxylate]	6.00 to 7.00
CCCOC(=O)c1c[nH]c2c(=O)[nH]c3ccc(I)cc3c12 [Compound 210, 8-Iodo-4-oxo-4,5-dihydro-3H-pyrrolo[2,3-c]quinoline-1-propyl carboxylate]	6.00 to 7.00
CCOC(=O)c1c[nH]c2c(=O)[nH]c3ccc(NS(=O)(=O)c4ccc(Br)cc4)cc3c12 [Compound 46, 8-(4-Bromo-benzenesulfonylamino)-4-oxo-4,5-dihydro-3H-pyrrolo[2,3-c]quinoline-1-ethyl carboxylate]	6.00 to 7.00
CCOC(=O)c1c[nH]c2c(=O)[nH]c3ccc(S(=O)(=O)Cc4ccccc4)cc3c12 [Compound 35, 4-Oxo-8-phenylmethanesulfonyl-4,5-dihydro-3H-pyrrolo[2,3-c]quinoline-1-ethyl carboxylate]	> 7.00
CCOC(=O)c1c[nH]c2c(=O)[nH]c3ccc(NC(C)=O)cc3c12 [Compound 61, 8-Acetylamino-4-oxo-4,5-dihydro-3H-pyrrolo[2,3-c]quinoline-1 ethyl carboxylate]	5.00 to 6.00
CCCOC(=O)c1c[nH]c2c(=O)[nH]c3ccc(S(=O)(=O)N(C)CC#N)cc3c12 [Compound 128, 8-(Cyanomethyl-methyl-sulfamoyl)-4-oxo-4,5-dihydro-3H-pyrrolo[2,3-c]quinoline-1-propyl carboxylate]	6.00 to 7.00
CCOC(=O)c1c[nH]c2c(=O)[nH]c3ccc(NS(=O)(=O)c4ccc(Cl)s4)cc3c12 [Compound 57, 8-(5-Chloro-thiophene-2-sulfonylamino)-4-oxo-4,5-dihydro-3H-pyrrolo[2,3-c]quinoline-1-ethyl carboxylate]	6.00 to 7.00
CCOC(=O)c1c[nH]c2c(=O)[nH]c3ccc(S(=O)(=O)Nc4ccc(OC)cc4)cc3c12 [Compound 9, 8-(4-Methoxy-phenylsulfamoyl)-4-oxo-4,5-dihydro-3H-pyrrolo[2,3-c]quinoline-1-ethyl carboxylate]	6.00 to 7.00
CCOC(=O)c1c[nH]c2c(=O)[nH]c3ccc(-c4ccc(NC(=O)OC(C)(C)C)cc4)cc3c12 [Compound 243, 8-(4-tert-Butoxycarbonylaminophenyl)-4-oxo-4,5-dihydro-3H-pyrrolo[2,3-c]quinoline-1-ethyl carboxylate]	5.00 to 6.00
CCOC(=O)c1c[nH]c2c(=O)[nH]c3ccc(S(=O)(=O)Nc4cccc(O)c4)cc3c12 [Compound 15, 8-(3-Hydroxy-phenylsulfamoyl)-4-oxo-4,5-dihydro-3H-pyrrolo[2,3-c]quinoline-1-ethyl carboxylate]	6.00 to 7.00
O=C(NCc1ccccc1)c1c[nH]c2c(=O)[nH]c3ccccc3c12 [Compound 83, N-(Benzyl)-4-oxo-4,5-dihydro-3H-pyrrolo[2,3-c]quinoline-1-carboxamide]	4.00 to 5.00

SMILES	pIC50
CCOC(=O)c1c[nH]c2c(=O)[nH]c3ccc(NS(=O)(=O)c4ccc(C(C)=O)cc4)cc3c12 [Compound 55, 8-(4-Acetyl-benzenesulfonylamino)-4-oxo-4,5-dihydro-3H-pyrrolo[2,3-c]quinoline-1-ethyl carboxylate]	5.00 to 6.00
CCCOC(=O)c1c[nH]c2c(=O)[nH]c3ccc(S(=O)(=O)N(CCOCc4ccccc4)C4CC4)cc3c12 [Compound 181, 8-[(2-Benzyloxy-ethyl)-cyclopropyl-sulfamoyl]-4-oxo-4,5-dihydro-3H-pyrrolo[2,3-c]quinoline-1-propyl carboxylate]	5.00 to 6.00
CCOC(=O)CCNS(=O)(=O)c1ccc2[nH]c(=O)c3[nH]cc(C(=O)OCC)c3c2c1 [Compound 29, 8-(2-Ethoxycarbonyl-ethylsulfamoyl)-4-oxo-4,5-dihydro-3H-pyrrolo[2,3-c]quinoline-1-ethyl carboxylate]	5.00 to 6.00
CCCOC(=O)c1c[nH]c2c(=O)[nH]c3ccc(S(=O)(=O)N(C)C4CCOCC4)cc3c12 [Compound 133, 8-[Methyl-(tetrahydro-pyran-4-yl)-sulfamoyl]-4-oxo-4,5-dihydro-3H-pyrrolo[2,3-c]quinoline-1-propyl carboxylate]	> 7.00
CCOC(=O)c1c[nH]c2c(=O)[nH]c3ccc(S(=O)(=O)Cc4ccncc4)cc3c12 [Compound 195, 4-Oxo-8-(pyridin-4-ylmethanesulfonyl)-4,5-dihydro-3H-pyrrolo[2,3-c]quinoline-1-ethyl carboxylate]	6.00 to 7.00
CCCNC(=O)c1c[nH]c2c(=O)[nH]c3ccc(S(=O)(=O)N(C)C)cc3c12 [Compound 109, N-Propyl-8-dimethylsulfamoyl-4-oxo-4,5-dihydro-3H-pyrrolo[2,3-c]quinoline-1-carboxamide]	4.00 to 5.00
CC(C)OC(=O)c1c[nH]c2c(=O)[nH]c3ccccc3c12 [Compound 78, 4-Oxo-4,5-dihydro-3H-pyrrolo[2,3-c]quinoline-1-carboxylate isopropyl]	5.00 to 6.00
CCCOC(=O)c1c[nH]c2c(=O)[nH]c3ccc(S(=O)(=O)N(C)CCN(C)C)cc3c12 [Compound 136, 8-[(2-Dimethylamino-ethyl)-methyl-sulfamoyl]-4-oxo-4,5-dihydro-3H-pyrrolo[2,3-c]quinoline-1-propyl carboxylate]	> 7.00
CCOC(=O)/C=C/c1ccc2[nH]c(=O)c3[nH]cc(C(=O)OCC)c3c2c1 [Compound 65, 8-(2-Ethoxycarbonyl-vinyl)-4-oxo-4,5-dihydro-3H-pyrrolo[2,3-c]quinoline-1-ethyl carboxylate]	5.00 to 6.00
CCOC(=O)c1c[nH]c2c(=O)[nH]c3ccc(-c4ccccc4N)cc3c12 [Compound 231, 8-(2-Aminophenyl)-4-oxo-4,5-dihydro-3H-pyrrolo[2,3-c]quinoline-1-ethyl carboxylate]	6.00 to 7.00
CCCOC(=O)c1c[nH]c2c(=O)[nH]c3ccc(S(=O)(=O)N(CCO)CCO)cc3c12 [Compound 176, 8-[bis-(2-Hydroxy-ethyl)-sulfamoyl]-4-oxo-4,5-dihydro-3H-pyrrolo[2,3-c]quinoline-1-propyl carboxylate]	6.00 to 7.00
CCOC(=O)c1c[nH]c2c(=O)[nH]c3ccc(-c4ccn(C)n4)cc3c12 [Compound 283, 8-(1-Methyl-1H-pyrazol-3-yl)-4-oxo-4,5-dihydro-3H-pyrrolo[2,3-c]quinoline-1-ethyl carboxylate]	6.00 to 7.00
CCOC(=O)c1c[nH]c2c(=O)[nH]c3ccc(Sc4cccc(N)c4)cc3c12 [Compound 224, 8-(3-Aminophenylsulfanyl)-4-oxo-4,5-dihydro-3H-pyrrolo[2,3-c]quinoline-1-ethyl carboxylate]	6.00 to 7.00
CCOC(=O)c1c[nH]c2c(=O)[nH]c3ccc(CCC(C)(C)O)cc3c12 [Compound 208, 8-(3-Hydroxy-3-methyl-butyl)-4-oxo-4,5-dihydro-3H-pyrrolo[2,3-c]quinoline-1-ethyl carboxylate]	6.00 to 7.00
C#Cc1ccc2[nH]c(=O)c3[nH]cc(C(=O)OCC)c3c2c1 [Compound 199, 8-Ethynyl-4-oxo-4,5-dihydro-3H-pyrrolo[2,3-c]quinoline-1-ethyl carboxylate]	5.00 to 6.00
CCOC(=O)c1c[nH]c2c(=O)[nH]c3ccc(-c4csc(-c5ccccc5)n4)cc3c12 [Compound 279, 4-Oxo-8-(2-phenyl-thiazol-4-yl)-4,5-dihydro-3H-pyrrolo[2,3-c]quinoline-1-ethyl carboxylate]	5.00 to 6.00
CCOC(=O)c1c[nH]c2c(=O)[nH]c3ccc(-c4cccc5ccccc45)cc3c12 [Compound 249, 8-Naphthalen-1-yl-4-oxo-4,5-dihydro-3H-pyrrolo[2,3-c]quinoline-1-ethyl carboxylate]	6.00 to 7.00
CCCOC(=O)c1c[nH]c2c(=O)[nH]c3cc(F)c(S(=O)(=O)N(C)C4CC4)cc3c12 [Compound 187, 8-(Cyclopropyl-methyl-sulfamoyl)-7-fluoro-4-oxo-4,5-dihydro-3H-pyrrolo[2,3-c]quinoline-1-propyl carboxylate]	6.00 to 7.00
